Test results taken from PubChem BioAssay (NCI).
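Cultured in 96-well plates, cells were exposed to test compound for 48 hours across five concentrations. TGI: concentration producing complete growth inhibition.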

Columns and labels:
Assay in all cases: DTP human tumour cell line panel, 48 h
786-0 renal = test system: 786-0 renal
A549 NSCLC = test system: A549 NSCLC
ACHN renal = test system: ACHN renal
BT-549 breast = test system: BT-549 breast
CAKI-1 renal = test system: CAKI-1 renal
CCRF-CEM leukemia = test system: CCRF-CEM leukemia
COLO 205 colon = test system: COLO 205 colon
DU-145 prostate = test system: DU-145 prostate
EKVX NSCLC = test system: EKVX NSCLC
HCC-2998 colon = test system: HCC-2998 colon
HCT-116 colon = test system: HCT-116 colon
HCT-15 colon = test system: HCT-15 colon
HL-60(TB) leukemia = test system: HL-60(TB) leukemia
HOP-62 NSCLC = test system: HOP-62 NSCLC
HOP-92 NSCLC = test system: HOP-92 NSCLC
HS 578T breast = test system: HS 578T breast
HT29 colon = test system: HT29 colon
IGROV1 ovarian = test system: IGROV1 ovarian
K-562 leukemia = test system: K-562 leukemia
KM12 colon = test system: KM12 colon
LOX IMVI melanoma = test system: LOX IMVI melanoma
M14 melanoma = test system: M14 melanoma
MALME-3M melanoma = test system: MALME-3M melanoma
MCF7 breast = test system: MCF7 breast
MDA-MB-231 breast = test system: MDA-MB-231 breast
MDA-MB-435 = test system: MDA-MB-435
MDA-N = test system: MDA-N
NCI-H23 lung = test system: NCI-H23 lung
NCI-H460 lung = test system: NCI-H460 lung
NCI-H522 lung = test system: NCI-H522 lung
NCI/ADR-RES ovarian = test system: NCI/ADR-RES ovarian
OVCAR-3 ovarian = test system: OVCAR-3 ovarian
OVCAR-4 ovarian = test system: OVCAR-4 ovarian
OVCAR-5 ovarian = test system: OVCAR-5 ovarian
OVCAR-8 ovarian = test system: OVCAR-8 ovarian
PC-3 prostate = test system: PC-3 prostate
RPMI-8226 leukemia = test system: RPMI-8226 leukemia
SF-268 CNS = test system: SF-268 CNS
SF-295 CNS = test system: SF-295 CNS
SF-539 CNS = test system: SF-539 CNS
SK-MEL-2 melanoma = test system: SK-MEL-2 melanoma
SK-MEL-28 melanoma = test system: SK-MEL-28 melanoma
SK-MEL-5 melanoma = test system: SK-MEL-5 melanoma
SK-OV-3 ovarian = test system: SK-OV-3 ovarian
SN12C renal = test system: SN12C renal
SNB-19 CNS = test system: SNB-19 CNS
SNB-75 CNS = test system: SNB-75 CNS
SR leukemia = test system: SR leukemia
SW-620 colon = test system: SW-620 colon
T-47D breast = test system: T-47D breast
TK-10 renal = test system: TK-10 renal
U251 CNS = test system: U251 CNS
UACC-257 melanoma = test system: UACC-257 melanoma
UACC-62 melanoma = test system: UACC-62 melanoma
UO-31 renal = test system: UO-31 renal
A498 renal = test system: A498 renal
MOLT-4 leukemia = test system: MOLT-4 leukemia
RXF 393 renal = test system: RXF 393 renal

In the case of `O=C(CCN1CCOCC1)Nc1ccc2sc3ccccc3c(=O)c2n1`, the TGI (786-0 renal) is reported as greater than 100 µM, the TGI (A549 NSCLC) is reported as greater than 100 µM and the TGI (ACHN renal) is reported as greater than 100 µM. It also gave a TGI (BT-549 breast) greater than 100 µM, a TGI (CAKI-1 renal) of 63.8 µM and a TGI (CCRF-CEM leukemia) greater than 100 µM. For the same molecule, the TGI (COLO 205 colon) was greater than 100 µM, the TGI (DU-145 prostate) was greater than 100 µM and the TGI (EKVX NSCLC) was greater than 100 µM. It also gave a TGI (HCC-2998 colon) greater than 100 µM, a TGI (HCT-116 colon) greater than 100 µM and a TGI (HCT-15 colon) greater than 100 µM. The TGI (HL-60(TB) leukemia) was greater than 100 µM, the TGI (HOP-62 NSCLC) was greater than 100 µM and the TGI (HOP-92 NSCLC) was greater than 100 µM. For the same molecule, the TGI (HS 578T breast) was greater than 100 µM, the TGI (HT29 colon) was greater than 100 µM and the TGI (IGROV1 ovarian) was greater than 100 µM. The TGI (K-562 leukemia) was greater than 100 µM, the TGI (KM12 colon) was greater than 100 µM and the TGI (LOX IMVI melanoma) was greater than 100 µM. The TGI (M14 melanoma) was greater than 100 µM, the TGI (MALME-3M melanoma) was 85.2 µM and the TGI (MCF7 breast) was greater than 100 µM. It also gave a TGI (MDA-MB-231 breast) greater than 100 µM, a TGI (MDA-MB-435) greater than 100 µM and a TGI (MDA-N) greater than 100 µM. It also gave a TGI (NCI-H23 lung) greater than 100 µM, a TGI (NCI-H460 lung) greater than 100 µM and a TGI (NCI-H522 lung) of 45.9 µM. The TGI (NCI/ADR-RES ovarian) was greater than 100 µM, the TGI (OVCAR-3 ovarian) was greater than 100 µM and the TGI (OVCAR-4 ovarian) was greater than 100 µM. It also gave a TGI (OVCAR-5 ovarian) greater than 100 µM, a TGI (OVCAR-8 ovarian) greater than 100 µM and a TGI (PC-3 prostate) greater than 100 µM. It also gave a TGI (RPMI-8226 leukemia) greater than 100 µM, a TGI (SF-268 CNS) greater than 100 µM and a TGI (SF-295 CNS) greater than 100 µM. It also gave a TGI (SF-539 CNS) greater than 100 µM, a TGI (SK-MEL-2 melanoma) greater than 100 µM and a TGI (SK-MEL-28 melanoma) greater than 100 µM. For the same molecule, the TGI (SK-MEL-5 melanoma) was 82.5 µM, the TGI (SK-OV-3 ovarian) was greater than 100 µM and the TGI (SN12C renal) was greater than 100 µM. It also gave a TGI (SNB-19 CNS) greater than 100 µM, a TGI (SNB-75 CNS) of 85.1 µM and a TGI (SR leukemia) greater than 100 µM. For the same molecule, the TGI (SW-620 colon) was greater than 100 µM, the TGI (T-47D breast) was greater than 100 µM and the TGI (TK-10 renal) was greater than 100 µM. The TGI (U251 CNS) was greater than 100 µM, the TGI (UACC-257 melanoma) was greater than 100 µM and the TGI (UACC-62 melanoma) was greater than 100 µM. It also gave a TGI (UO-31 renal) greater than 100 µM.

`CN1CCC23c4c5ccc(O)c4OC2c2[nH]c4ccccc4c2CC3(O)C1C5` (stereo unspecified) was tested, and the TGI (786-0 renal) was 39.6 µM, the TGI (A498 renal) was 38 µM and the TGI (A549 NSCLC) was greater than 100 µM. It also gave a TGI (ACHN renal) of 65.1 µM, a TGI (BT-549 breast) greater than 100 µM and a TGI (CAKI-1 renal) greater than 100 µM. It also gave a TGI (CCRF-CEM leukemia) of 46.9 µM, a TGI (COLO 205 colon) of 33.1 µM and a TGI (DU-145 prostate) greater than 100 µM. The TGI (EKVX NSCLC) was greater than 100 µM, the TGI (HCC-2998 colon) was 32 µM and the TGI (HCT-116 colon) was greater than 100 µM. The TGI (HCT-15 colon) was greater than 100 µM, the TGI (HOP-62 NSCLC) was greater than 100 µM and the TGI (HOP-92 NSCLC) was 40.5 µM. The TGI (HS 578T breast) was 70.9 µM, the TGI (HT29 colon) was greater than 100 µM and the TGI (IGROV1 ovarian) was greater than 100 µM. For the same molecule, the TGI (K-562 leukemia) was 44.4 µM, the TGI (KM12 colon) was greater than 100 µM and the TGI (LOX IMVI melanoma) was 54.7 µM. The TGI (M14 melanoma) was 34.8 µM, the TGI (MALME-3M melanoma) was 36.8 µM and the TGI (MCF7 breast) was greater than 100 µM. It also gave a TGI (MDA-MB-231 breast) of 86.5 µM, a TGI (MDA-MB-435) of 36.9 µM and a TGI (MDA-N) of 44.9 µM. It also gave a TGI (MOLT-4 leukemia) of 93.6 µM, a TGI (NCI-H23 lung) greater than 100 µM and a TGI (NCI-H460 lung) greater than 100 µM. The TGI (NCI-H522 lung) was greater than 100 µM, the TGI (NCI/ADR-RES ovarian) was greater than 100 µM and the TGI (OVCAR-3 ovarian) was greater than 100 µM. For the same molecule, the TGI (OVCAR-4 ovarian) was greater than 100 µM, the TGI (OVCAR-5 ovarian) was greater than 100 µM and the TGI (OVCAR-8 ovarian) was greater than 100 µM. The TGI (PC-3 prostate) was greater than 100 µM, the TGI (RPMI-8226 leukemia) was 55 µM and the TGI (RXF 393 renal) was 66.1 µM. It also gave a TGI (SF-268 CNS) greater than 100 µM, a TGI (SF-295 CNS) greater than 100 µM and a TGI (SK-MEL-2 melanoma) of 39.9 µM. The TGI (SK-MEL-28 melanoma) was 28.4 µM, the TGI (SK-MEL-5 melanoma) was 27.1 µM and the TGI (SK-OV-3 ovarian) was greater than 100 µM. For the same molecule, the TGI (SN12C renal) was greater than 100 µM, the TGI (SNB-19 CNS) was greater than 100 µM and the TGI (SNB-75 CNS) was greater than 100 µM. It also gave a TGI (SR leukemia) greater than 100 µM, a TGI (SW-620 colon) greater than 100 µM and a TGI (T-47D breast) of 46.9 µM. It also gave a TGI (TK-10 renal) of 43.5 µM, a TGI (U251 CNS) of 52.9 µM and a TGI (UACC-257 melanoma) of 36.8 µM. It also gave a TGI (UACC-62 melanoma) of 53.5 µM and a TGI (UO-31 renal) of 30.9 µM.
